# Laboratory results from patent US9763963B2, “Topically active steroids for use in interstitial pulmonary fibrosis” (Soligenix, Inc., priority 2008, dated 2017).
# Where “and” joins values, the source holds several entries; their conditions need not be identical. Equal entries are not always repeated.
# How the values were obtained:
# [1] = BDP and 17-BMP in plasma of right atrial blood after oral BDP; details: oral BDP 2 mg
# Experimental: Pharmacokinetic parameters were calculated using WinNonlin v. […] Plasma concentration-time data were plotted and non-compartmental parameters were calculated using the linear trapezoidal rule. Estimates for half-lives were obtained using regression analysis by specifying an appropriate range of time points for the most linear portions of the log concentration-linear time data.
# [2] = bioavailability study of oral BDP, given orally and intravenously to 12 healthy subjects
# [3] = test system: pulmonary function (FVC, FEV1, TLC, DLCO); assay: pulmonary function testing after allogeneic HCT, oral BDP versus placebo; assay type: in vivo, human
# Excerpt: Patients whose symptoms were controlled at study day ten continued on study drug while the prednisone dose was rapidly tapered. Patients whose symptoms required additional prednisone were considered treatment failures. Study drug was discontinued on the day of treatment failure. The duration of treatment with study drug was 30 days with a 10-day follow-up period in the first trial and 50 days with a 30-day follow-up period in the second trial.
# Pulmonary function assessments included forced vital capacity (FVC), one-second forced expiratory volume (FEV1), total lung capacity (TLC), and carbon monoxide diffusion capacity (DLCO), which was adjusted for hemoglobin level at the time PFTs were obtained. All PFT values were expressed as a percent of the predicted value calculated according to published equations (Crapo R O et al., Am Rev Respir Dis, 1981; 123:659-664; Crapo R O et al., Am Rev Respir Dis, 1981; 123:185-189). Pretransplantation and Day 80 PFTs were obtained, regardless of the presence or absence of symptoms. After discharge, patients were encouraged to return at one year after transplantation, at which time another PFT was obtained. For purposes of the current study, PFTs performed between days 60 and 100 were considered as valid for the Day 80 PFT and tests performed between days 265 and 465 as valid for the one-year PFT. Change in lung function was assessed by comparing PFT parameters performed prior to start of conditioning to those obtained post-transplantation at Day 80 and one year. Analysis of change in lung function was done on an intent-to-treat basis, by randomization assignment to oral BDP or placebo, with maintenance of the study blind.
# [4] = test system: noninfectious pulmonary complications; assay: noninfectious pulmonary complications after randomization (record review); assay type: in vivo, human
# Excerpt: (§1) While blinded to randomization assignment, investigators reviewed all patients' pulmonary radiologic records accumulated from the time of randomization to one year after transplantation. The medical records of all patients with abnormal pulmonary radiological findings were reviewed to determine whether the pulmonary disease was a clinically significant noninfectious or infectious syndrome. Clinically significant noninfectious pulmonary syndromes included idiopathic pneumonia syndrome (IPS), defined as widespread alveolar injury in the absence of active lower respiratory tract infection after HCT (Freudenberger T D et al., Blood, 2003; 102:3822-3828, diffuse alveolar hemorrhage (DAH), defined as IPS with bronchioalveolar lavage showing progressively bloodier return, or biopsy-proven cryptogenic organizing pneumonia (COP) otherwise known as bronchiolitis obliterans organizing pneumonia (BOOP). Clinically significant pulmonary infection required microbiologic documentation of an infectious agent in the respiratory tract via bronchoscopy or resolution of pulmonary abnormalities after empirical antibiotic therapy with no addition of immunosuppressive agents.
# [5] = test system: pulmonary infection; assay: pulmonary infections after randomization (record review); assay type: in vivo, human
# Excerpt: as §1
# [6] = test system: gastrointestinal graft-versus-host disease (GVHD); details: cited from earlier work
# [7] = pre-HCT baseline to transplant day 80
molecule,measurement,setting,value
"CCC(=O)O[C@]1(C(=O)CO)[C@@H](C)C[C@H]2[C@@H]3CCC4=CC(=O)C=C[C@]4(C)[C@@]3(Cl)[C@@H](O)C[C@@]21C [17-BMP, 17-beclomethasone monopropionate]","time of peak concentration in right atrial blood, median","[1]; study Day 50, four patients",1.5 h
same,median half-life,"[1]; study Day 50, range 3.1-6.8",6.3 h
same,median Cm,"[1]; study Day 50, range 632-3701",1738 pg/mL
same,total oral bioavailability,"[2]; active metabolite after oral BDP, unpublished data",21-41%
"beclomethasone 17,21-dipropionate [BDP]",DLCO: mean decrease from baseline to one year,"[3]; 32 patients with data, placebo 15.27%, p=0.11",7.67%
same,"DLCO, pulmonary function at one year","[3]; mean, n = 33",78.1% of predicted normal values
same,"FEV1, pulmonary function at one year","[3]; mean, n = 33",85.9% of predicted normal values
same,"FVC, pulmonary function at one year","[3]; mean, n = 33",89.4% of predicted normal values
same,"TLC, pulmonary function at one year","[3]; mean, n = 33",95.7% of predicted normal values
same,"DLCO, pulmonary function at Day 80","[3]; mean, n = 54",86.0% of predicted normal values
same,"TLC, pulmonary function at Day 80","[3]; mean, n = 55",96.9% of predicted normal values
same,"FEV1, pulmonary function at Day 80","[3]; mean, n = 56",90.3% of predicted normal values
same,"FVC, pulmonary function at Day 80","[3]; mean, n = 56",93.8% of predicted normal values
same,FEV1: mean change,"[3]; pre-HCT baseline to day 80, percent of predicted, range −22, +34, p 0.48",−0.05
same,TLC: mean change,"[3]; pre-HCT baseline to day 80, percent of predicted, range −25, +57, p 0.23",+1.41
same,FVC: mean change,"[3]; pre-HCT baseline to day 80, percent of predicted, range −30, +35, p 0.26",+0.34
same,FEV1: % of patients who experienced a decrease,[3]; [7],(50) %
same,FVC: % of patients who experienced a decrease,[3]; [7],(50) %
same,TLC: % of patients who experienced a decrease,[3]; [7],(58) %
same,"DLCO: N, proportion of patients who experienced a decrease","[3]; pre-HCT baseline to transplant day 80, p 0.02",27 of 49 and 27/49
same,"FVC: N, proportion of patients who experienced a decrease","[3]; pre-HCT baseline to transplant day 80, p 0.66",25/50
same,"FEV1: N, proportion of patients who experienced a decrease","[3]; pre-HCT baseline to transplant day 80, p 0.83",25/50
same,"TLC: N, proportion of patients who experienced a decrease","[3]; pre-HCT baseline to transplant day 80, p 0.88",29/50
same,noninfectious events,[4]; after Day 200,four
same,cases of noninfectious pulmonary complications,"[4]; first 200 days after randomization, 60 patients, placebo four",no cases
same,day of noninfectious event,"[4]; in order: COP/BOOP, IPS, bronchiolitis obliterans syndrome, DAH",207 days and 212 days and 244 days and 269 days
same,cases of pulmonary infection,[5]; first 200 days after randomization,6
same,cases of pulmonary infection,"[5]; first year after randomization, 60 patients, placebo 11",8
same,share of first-year pulmonary infections that occurred in the first 200 days,[5]; in vivo,75%
same,patients who developed noninfectious pulmonary infiltrative disorders,"[6]; 80-day study period, placebo 12/67 (18%)",0/62
same,multiple bacteremic episodes,"[6]; most recent trial, placebo 9%",none
same,fungal infections,"[6]; most recent trial, placebo 14%",7%
same,cytomegalovirus reactivations,"[6]; most recent trial, placebo 39%",28%
same,reduction in mortality risk,[6]; one-year post-randomization,45%
same,intravenous dexamethasone dose of equivalent systemic exposure,[2]; oral BDP 2 mg,less than 1 mg
same,oral prednisone dose of equivalent systemic exposure,[2]; oral BDP 2 mg,2.5 mg
